From patent US11034672B1, “Tyrosine kinase inhibitor compositions, methods of making and methods of use” (Black Diamond Therapeutics, Inc., priority 2018, dated 2021) come the findings set out here.

Test [1] addresses T1, EGFR WT (Homo sapiens, UniProt P00533). In words: Activity for inhibiting EGFR (Table A), EGFR WT. The format is cell-based. The note with it: read-out: EGFR WT, potency code (IC50).
Test [2] addresses T2, HER2 S310F (Homo sapiens, UniProt P04626, S310F).
T2 construct: expressed in transfected cells; host or cells: BaF3 (murine pro-B)
Put plainly: Activity for inhibiting HER2 (Table B), HER2 S310F. It counts as cell-based. As to conditions: read-out: HER2 S310F, potency code (IC50). On the procedure:
(§1) EC50 values were determined with the same application.

In test [3] the target is T3, EGFR NPH (Homo sapiens, UniProt P00533, DUP771-773).
T3 construct: expressed in transfected cells; host or cells: BaF3 (murine pro-B), retroviral pMXs-IRES-Blasticidin
In words: BaF3 cell proliferation assay, EGFR NPH (Table A). It counts as cell-based. As to conditions: potency code, 3 days, CellTiterGlo, read-out: EGFR NPH (Activity for Inhibiting EGFR). Put shortly:
(§2)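 Proliferation read-out is used in BaF3 cells engineered to express each EGFR or HER2 form; EC50 is derived from it. Transduced populations are selected with Blasticidin, washed in PBS and cultured without IL-3.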
A general note: ATP-based viability assays read luminescence as a measure of living cells.

The target of test [4] is T4, HER2 YVMA (Homo sapiens, UniProt P04626, INS775YVMA).
T4 construct: expressed in transfected cells; host or cells: BaF3 (murine pro-B)
T4 sequence (P04626 with tags, fused parts or gaps INS775YVMA): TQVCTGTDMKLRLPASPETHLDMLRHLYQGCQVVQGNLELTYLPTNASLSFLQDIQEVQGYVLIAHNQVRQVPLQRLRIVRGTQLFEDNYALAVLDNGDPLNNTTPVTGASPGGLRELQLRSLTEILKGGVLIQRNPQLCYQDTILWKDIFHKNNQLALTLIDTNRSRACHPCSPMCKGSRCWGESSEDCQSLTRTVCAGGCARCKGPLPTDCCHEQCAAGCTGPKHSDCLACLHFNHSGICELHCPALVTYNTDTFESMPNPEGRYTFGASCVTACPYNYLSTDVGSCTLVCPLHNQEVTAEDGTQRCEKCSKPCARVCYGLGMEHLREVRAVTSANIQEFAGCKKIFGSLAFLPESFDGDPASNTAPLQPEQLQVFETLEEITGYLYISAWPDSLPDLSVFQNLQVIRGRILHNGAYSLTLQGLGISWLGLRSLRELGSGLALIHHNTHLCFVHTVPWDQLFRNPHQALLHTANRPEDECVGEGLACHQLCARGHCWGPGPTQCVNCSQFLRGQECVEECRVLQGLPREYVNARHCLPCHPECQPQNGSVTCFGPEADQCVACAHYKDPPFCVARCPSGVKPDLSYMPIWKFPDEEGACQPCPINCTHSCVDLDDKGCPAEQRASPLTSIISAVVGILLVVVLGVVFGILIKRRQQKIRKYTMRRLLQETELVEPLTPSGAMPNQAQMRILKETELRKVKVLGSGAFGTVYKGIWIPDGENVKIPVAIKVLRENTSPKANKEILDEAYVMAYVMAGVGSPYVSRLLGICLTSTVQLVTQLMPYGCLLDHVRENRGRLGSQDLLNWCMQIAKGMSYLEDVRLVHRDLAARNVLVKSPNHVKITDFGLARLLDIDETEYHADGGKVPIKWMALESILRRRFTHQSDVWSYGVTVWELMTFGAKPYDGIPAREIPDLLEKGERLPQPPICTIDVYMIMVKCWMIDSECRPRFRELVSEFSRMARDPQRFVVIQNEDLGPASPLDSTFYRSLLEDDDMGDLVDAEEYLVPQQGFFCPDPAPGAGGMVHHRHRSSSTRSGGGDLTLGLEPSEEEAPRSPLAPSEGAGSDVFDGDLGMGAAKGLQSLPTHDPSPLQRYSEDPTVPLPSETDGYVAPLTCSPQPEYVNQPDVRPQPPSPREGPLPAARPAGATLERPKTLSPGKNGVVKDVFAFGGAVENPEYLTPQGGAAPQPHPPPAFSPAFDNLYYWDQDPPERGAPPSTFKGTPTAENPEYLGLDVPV
Put plainly: Activity for inhibiting HER2 (Table B), HER2 YVMA. The format is cell-based. The note with it: read-out: HER2 YVMA, potency code (IC50). On the procedure: as §1

The target in test [5] is T5, HER2 WT (Homo sapiens, UniProt P04626). Put plainly: Activity for inhibiting HER2 (Table B), HER2 WT. The format is cell-based.
T5 sequence (P04626 23-1255): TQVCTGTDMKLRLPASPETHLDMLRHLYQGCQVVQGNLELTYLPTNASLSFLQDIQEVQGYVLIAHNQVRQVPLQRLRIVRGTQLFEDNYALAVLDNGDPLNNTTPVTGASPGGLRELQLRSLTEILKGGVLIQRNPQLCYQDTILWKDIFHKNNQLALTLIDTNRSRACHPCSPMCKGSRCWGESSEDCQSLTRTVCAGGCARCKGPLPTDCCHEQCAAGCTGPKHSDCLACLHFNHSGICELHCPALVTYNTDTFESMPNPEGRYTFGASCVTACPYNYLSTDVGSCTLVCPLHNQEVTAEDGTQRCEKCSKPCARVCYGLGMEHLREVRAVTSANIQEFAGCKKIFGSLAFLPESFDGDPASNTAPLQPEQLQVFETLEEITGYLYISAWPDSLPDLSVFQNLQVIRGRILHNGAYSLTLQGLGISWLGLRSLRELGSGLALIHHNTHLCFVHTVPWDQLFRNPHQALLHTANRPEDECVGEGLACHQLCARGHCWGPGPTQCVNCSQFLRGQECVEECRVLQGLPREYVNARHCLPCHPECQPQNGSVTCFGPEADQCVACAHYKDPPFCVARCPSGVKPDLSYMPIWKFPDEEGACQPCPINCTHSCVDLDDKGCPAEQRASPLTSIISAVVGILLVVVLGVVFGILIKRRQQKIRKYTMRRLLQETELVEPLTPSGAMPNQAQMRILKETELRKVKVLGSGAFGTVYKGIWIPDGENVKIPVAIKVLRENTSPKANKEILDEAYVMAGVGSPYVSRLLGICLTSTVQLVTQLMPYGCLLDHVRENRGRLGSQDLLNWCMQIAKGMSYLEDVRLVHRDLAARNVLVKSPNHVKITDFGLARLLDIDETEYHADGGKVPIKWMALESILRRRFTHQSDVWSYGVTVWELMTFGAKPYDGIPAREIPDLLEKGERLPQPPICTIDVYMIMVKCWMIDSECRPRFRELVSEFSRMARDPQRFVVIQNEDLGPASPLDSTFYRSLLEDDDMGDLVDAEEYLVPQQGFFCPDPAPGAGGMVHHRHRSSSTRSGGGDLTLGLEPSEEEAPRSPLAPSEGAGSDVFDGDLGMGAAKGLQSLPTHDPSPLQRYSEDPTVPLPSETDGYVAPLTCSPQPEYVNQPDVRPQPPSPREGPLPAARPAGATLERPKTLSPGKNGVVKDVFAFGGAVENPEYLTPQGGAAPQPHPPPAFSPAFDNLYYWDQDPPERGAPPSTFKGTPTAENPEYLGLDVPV
Test [6] deals with T6, EGFR V3 (Homo sapiens, UniProt P00533, DELINS30-297G).
T6 construct: expressed in transfected cells; host or cells: BaF3 (murine pro-B), retroviral pMXs-IRES-Blasticidin
T6 sequence (P00533 with tags, fused parts or gaps DELINS30-297G): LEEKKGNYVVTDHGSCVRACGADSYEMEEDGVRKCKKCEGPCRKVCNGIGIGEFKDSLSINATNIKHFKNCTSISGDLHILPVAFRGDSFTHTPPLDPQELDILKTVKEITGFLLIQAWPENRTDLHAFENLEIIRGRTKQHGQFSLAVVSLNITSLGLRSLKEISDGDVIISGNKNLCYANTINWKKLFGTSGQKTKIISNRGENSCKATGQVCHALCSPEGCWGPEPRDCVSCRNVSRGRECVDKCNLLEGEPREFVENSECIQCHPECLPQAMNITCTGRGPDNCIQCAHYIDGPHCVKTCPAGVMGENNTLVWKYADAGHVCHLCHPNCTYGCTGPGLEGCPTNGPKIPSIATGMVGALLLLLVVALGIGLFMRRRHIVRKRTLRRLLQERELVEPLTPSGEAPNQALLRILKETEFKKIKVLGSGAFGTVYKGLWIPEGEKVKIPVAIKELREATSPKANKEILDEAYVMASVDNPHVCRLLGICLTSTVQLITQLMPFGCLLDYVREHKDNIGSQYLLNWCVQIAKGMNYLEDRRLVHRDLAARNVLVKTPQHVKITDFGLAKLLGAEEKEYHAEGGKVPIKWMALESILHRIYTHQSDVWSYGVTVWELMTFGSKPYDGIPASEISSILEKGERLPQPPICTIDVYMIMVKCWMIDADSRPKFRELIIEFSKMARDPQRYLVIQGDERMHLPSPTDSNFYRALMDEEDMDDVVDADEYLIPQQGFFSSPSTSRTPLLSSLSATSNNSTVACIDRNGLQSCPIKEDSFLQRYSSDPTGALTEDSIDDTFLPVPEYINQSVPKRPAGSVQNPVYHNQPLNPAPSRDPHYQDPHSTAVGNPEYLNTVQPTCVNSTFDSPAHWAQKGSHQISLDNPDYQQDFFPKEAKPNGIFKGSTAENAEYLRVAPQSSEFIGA
Put plainly: Activity for inhibiting EGFR (Table A), EGFR V3 (EGFR-Viii). The format is cell-based. The note with it: read-out: EGFR V3, potency code (IC50).

Test [7] addresses T5, HER2 WT. In words: BaF3 cell proliferation assay, HER2 WT (Table B). It counts as cell-based. As to conditions: potency code, 3 days, CellTiterGlo, read-out: HER2 WT (Activity for Inhibiting HER2).
The target in test [8] is T1, EGFR WT. Put plainly: BaF3 cell proliferation assay, EGFR WT (Table A). As to conditions: potency code, 3 days, CellTiterGlo, read-out: EGFR WT (Activity for Inhibiting EGFR). It counts as cell-based. An outline of the steps:
as §2

The target in test [9] is T7, EGFR SVD (Homo sapiens, UniProt P00533, DUP768-770).
T7 construct: expressed in transfected cells; host or cells: BaF3 (murine pro-B), retroviral pMXs-IRES-Blasticidin
T7 sequence (P00533 with tags, fused parts or gaps DUP768-770): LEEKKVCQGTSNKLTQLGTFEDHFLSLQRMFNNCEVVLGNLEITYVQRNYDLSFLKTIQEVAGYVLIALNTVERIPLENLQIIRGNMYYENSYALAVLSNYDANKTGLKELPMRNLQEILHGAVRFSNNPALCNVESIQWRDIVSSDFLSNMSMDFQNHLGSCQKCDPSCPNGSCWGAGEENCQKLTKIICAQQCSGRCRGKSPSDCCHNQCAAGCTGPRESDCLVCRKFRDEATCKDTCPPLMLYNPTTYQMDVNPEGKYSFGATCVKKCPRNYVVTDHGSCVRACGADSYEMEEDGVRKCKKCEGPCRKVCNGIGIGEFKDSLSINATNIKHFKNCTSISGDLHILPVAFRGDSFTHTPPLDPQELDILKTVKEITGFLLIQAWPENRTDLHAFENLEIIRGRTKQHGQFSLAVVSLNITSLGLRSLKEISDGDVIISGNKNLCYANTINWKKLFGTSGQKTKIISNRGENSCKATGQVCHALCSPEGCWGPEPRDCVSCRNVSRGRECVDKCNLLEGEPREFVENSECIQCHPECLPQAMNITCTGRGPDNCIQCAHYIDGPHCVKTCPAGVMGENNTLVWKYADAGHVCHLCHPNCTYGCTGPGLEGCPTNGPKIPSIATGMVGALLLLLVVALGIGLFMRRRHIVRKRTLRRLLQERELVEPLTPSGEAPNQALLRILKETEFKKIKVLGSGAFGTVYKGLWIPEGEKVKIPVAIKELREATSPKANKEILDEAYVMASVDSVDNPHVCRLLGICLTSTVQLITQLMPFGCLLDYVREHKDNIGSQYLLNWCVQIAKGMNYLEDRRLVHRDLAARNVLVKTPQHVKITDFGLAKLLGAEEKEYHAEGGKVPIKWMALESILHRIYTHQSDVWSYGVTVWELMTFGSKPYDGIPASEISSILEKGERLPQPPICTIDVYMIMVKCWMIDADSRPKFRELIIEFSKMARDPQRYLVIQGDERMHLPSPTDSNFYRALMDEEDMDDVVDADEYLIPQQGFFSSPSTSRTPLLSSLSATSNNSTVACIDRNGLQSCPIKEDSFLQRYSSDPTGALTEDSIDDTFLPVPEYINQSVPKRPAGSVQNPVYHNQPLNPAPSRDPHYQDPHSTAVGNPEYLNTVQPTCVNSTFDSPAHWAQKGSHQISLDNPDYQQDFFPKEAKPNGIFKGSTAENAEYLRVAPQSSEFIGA
In words: BaF3 cell proliferation assay, EGFR SVD (Table A). It counts as cell-based. As to conditions: potency code, 3 days, CellTiterGlo, read-out: EGFR SVD (Activity for Inhibiting EGFR). Put shortly:
as §2

Test [10] concerns the target T4, HER2 YVMA. Put plainly: BaF3 cell proliferation assay, HER2 YVMA (Table B). As to conditions: potency code, 3 days, CellTiterGlo, read-out: HER2 YVMA (Activity for Inhibiting HER2). The format is cell-based.
Test [11] has as its target T2, HER2 S310F. In words: BaF3 cell proliferation assay, HER2 S310F (Table B). It counts as cell-based. As to conditions: potency code, 3 days, CellTiterGlo, read-out: HER2 S310F (Activity for Inhibiting HER2).
Test [12] concerns the target T3, EGFR NPH. Put plainly: Activity for inhibiting EGFR (Table A), EGFR NPH. It counts as cell-based. As to conditions: read-out: EGFR NPH, potency code (IC50).
The target in test [13] is T7, EGFR SVD. Put plainly: Activity for inhibiting EGFR (Table A), EGFR SVD. The format is cell-based. As to conditions: read-out: EGFR SVD, potency code (IC50).
Test [14] deals with T6, EGFR V3. In words: BaF3 cell proliferation assay, EGFR V3 (Table A). The format is cell-based. As to conditions: potency code, 3 days, CellTiterGlo, read-out: EGFR V3 (Activity for Inhibiting EGFR). Put shortly: as §2
Test [15] has as its system Her2 S310F BaF3 tumors. Put plainly: Tumor growth in athymic nude mice bearing Her2 S310F BaF3 tumors. The format is in vivo. As to conditions: for Tumor response: FIG. 28. As for the experimental part: Tumor size was measured for each dosing schedule, and analyzed to assess regression. […] The effect was further confirmed in the dose-dependent experiment.
A mouse tumor model containing mutant Her2 was used to test the ability of Compound No. 26 to inhibit tumor growth and induce tumor regression in vivo. Athymic nude mice from Charles River Labs bearing Her2 S310F BaF3 tumors were treated with Compound No. 26 either at 15 mg/kg once per day (QD), 7.5 mg/kg twice per day (BID), and 15 mg/kg twice per day (BID). Tumor size was measured for each dosing condition and analyzed to assess regression. […] The effect was further confirmed in mice dosed at 15 mg/kg once per day (QD), 7.5 mg/kg twice per day (BID), and 15 mg/kg twice per day (BID). In addition to assessing tumor size in these groups, plasma was collected from dosed individuals at 2 and 5 hours following each treatment. Compound No. 26 levels were measured in the plasma samples to determine pharmacokinetic profiles that may influence tumor response.
Tumor size was measured and analyzed to assess the effect on tumor growth and regression.
A mouse tumor model containing mutant Her2 was used to test the ability of Compound No. 6 to inhibit tumor growth and induce tumor regression in vivo. Athymic nude mice from Charles River Labs bearing Her2 S310F BaF3 tumors were treated with Compound No. 6 at 30 mg/kg once per day (QD) for 10 days. Tumor size was measured and analyzed to assess the effect on tumor growth and regression.

The mark [16] stands for this setting: Table B, read-out: HER2 WT, potency code (IC50).
[17] abbreviates: text lists of compounds, read-out: IC50 value for inhibiting wild-type HER2.
[18] abbreviates: 50 mg/kg once per day for 10 days.

The structures appear in SMILES notation.

Consider `CC#CC(=O)Nc1cc2c(Nc3ccc(OCc4ccccn4)c(Cl)c3)ncnc2cc1OCCN1CCOCC1` [compound 5], for which the IC50 in test [1] was 30 to 50 nM; in [2], less than 5 nM; in [3], 30 to 50 nM; in test [4] it was 5 to 10 nM; in test [5] (setting [16]), less than 5 nM; in [5] (setting [17]) it was not above 5 nM. The IC50 is 10 to 20 nM in test [6]; less than 5 nM in [7]; 30 to 50 nM in test [8]; 10 to 20 nM in test [9]; 5 to 10 nM in [10]; less than 5 nM in test [11]. Further, the figures for the IC50 in test [12], in test [13] and in test [14] were 30 to 50 nM, 10 to 20 nM and 10 to 20 nM, respectively.
Consider `C=CC(=O)Nc1cc2c(Nc3cc(Cl)c(OCc4cccc(F)c4)cc3F)ncnc2cc1OCCN1CCOCC1` [compound 6], for which the IC50 in [1] was 200 to 300 nM; in test [2], 10 to 20 nM; in test [4] it was 50 to 100 nM; in test [5] (setting [16]), 5 to 10 nM; in [5] (setting [17]) it was not above 10 nM; in [6], 20 to 30 nM. The IC50 is 5 to 10 nM in test [7]; 200 to 300 nM in test [8]; 50 to 100 nM in [10]; 10 to 20 nM in [11]; 20 to 30 nM in [14]. In [15] (30 mg/kg once per day (QD) for 10 days, FIG. 30), the Tumor volume result was “decreased”.
As to `C=CC(=O)Nc1cc2c(Nc3ccc(OCc4ccccn4)c(Cl)c3)ncnc2cc1OCCN1CCOCC1` [compound 8], the IC50 in test [1] is 300 to 500 nM; in test [2], 10 to 20 nM; in test [3], 30 to 50 nM; in test [4], 50 to 100 nM; in [5] (setting [16]), 5 to 10 nM; in [5] (setting [17]) it was not above 10 nM. Further, the IC50 is 20 to 30 nM in [6]; 5 to 10 nM in [7]; 300 to 500 nM in test [8]; 20 to 30 nM in test [9]; 50 to 100 nM in test [10]; 10 to 20 nM in [11]. The values for the IC50 in test [12], in [13] and in test [14] were 30 to 50 nM, 20 to 30 nM and 20 to 30 nM, respectively. Further, the “Tumor regression, dose-dependent experiment” value in test [15] (15 mg/kg to 100 mg/kg once per day (QD) for 10 days, FIG. 26 right panel) is “regressed in a Compound No. 8 dose-dependent manner”. Also, the Tumor volume result in [15] (setting [18]) is “decreased”.
For `C=CC(=O)Nc1cc2c(Nc3ccc(OCc4ccccn4)c(Cl)c3)ncnc2cc1OCCCN1CCOCC1` [compound 21], the IC50 in [1] was 500 to 1000 nM; in [2], 5 to 10 nM; in test [3], 10 to 20 nM; in test [4] it was 20 to 30 nM; in test [5] (setting [16]), less than 5 nM; in test [5] (setting [17]), not above 10 nM. Besides, the IC50 in [6] was 20 to 30 nM; in [7], less than 5 nM; in test [8] it was 500 to 1000 nM; in test [9], 10 to 20 nM; in [10], 20 to 30 nM; in test [11], 5 to 10 nM. The results for the IC50 in test [12], in [13] and in test [14] were 10 to 20 nM, 10 to 20 nM and 20 to 30 nM, respectively. Besides, the Tumor volume entry in test [15] (setting [18]) is “did not increase over the same timeframe and showed moderate reduction in volume”.
With `C=CC(=O)Nc1cc2c(Nc3ccc(OCc4ccccn4)c(Cl)c3)ncnc2cc1C#C[C@@H]1[C@H]2CN(C)C[C@@H]12` [compound 26], the IC50 was 300 to 500 nM in test [1]; 5 to 10 nM in [2]; 30 to 50 nM in test [3]; 30 to 50 nM in [4]; 5 to 10 nM in test [5] (setting [16]); not above 10 nM in [5] (setting [17]). Moreover, the IC50 lay within 30 to 50 nM in test [6]; 5 to 10 nM in test [7]; 300 to 500 nM in [8]; 30 to 50 nM in test [9]; 30 to 50 nM in test [10]; 5 to 10 nM in test [11]. The IC50 in test [12], in [13] and in [14] was 30 to 50 nM throughout. For the same compound, the Tumor response entry was “definite tumor growth inhibition properties” in test [15] (7.5 mg/kg twice per day (BID)), “definite tumor regressive properties” in test [15] (15 mg/kg BID) and “definite tumor growth inhibition properties” in test [15] (15 mg/kg once per day (QD)). In addition, the “Tumor volume over the time course” value in [15] (15 mg/kg QD, 7.5 mg/kg BID, 15 mg/kg BID, FIG. 27) was “did not increase”.
